Experimental data reported in patent publication US12110276B2 (Genentech, Inc., priority 2021, dated 2024).
Structures can show the parent of a compound that is named as a salt.

What was measured:
[1] = biological target: TEAD3 (Homo sapiens (Human), UniProt Q99594); assay: TR-FRET lipid pocket probe competition assay (Lipid HTRF), TEAD3; assay type: binding; details: 4 hours pre-incubation; read-out: Lipid HTRF TEAD3 IC50
Method: (§1) His-tagged TEAD proteins are pre-incubated with TEAD project compounds for 30 minutes or 4 hours at room temperature. Biotinylated lipid pocket probes are then added to the TEAD/Compound mixture and incubated for 60 minutes at room temperature. The lipid pocket probe competes with the test compound for the TEAD lipid pocket until equilibrium is reached. After 60 minutes, Europium labelled anti-His (Perkin Elmer #AD0110) and XL665 labelled streptavidin (CIS Bio 610SAXAC) are added to the TEAD/test compound/lipid pocket mixture and incubated for 30 minutes or 4 hours. […] If a TEAD lipid pocket binder such as binds and displaces the lipid pocket probe, the disruption of the TEAD:probe interaction results in a decrease in TR-FRET signal. The potency of compounds as TEAD lipid pocket binders is determined by IC50 value generated using a non-linear 4 parameter curve fit.

[2] = biological target: TEAD1 (Homo sapiens (Human), UniProt P28347); assay: TR-FRET lipid pocket probe competition assay (Lipid HTRF), TEAD1; assay type: binding; details: 4 hours pre-incubation; read-out: Lipid HTRF TEAD1 IC50;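 further: His-tagged TEAD1 with biotinylated probe, detected via Europium anti-His and XL665 streptavidin, probe displacement lowers TR-FRET signal, IC50 from four-parameter nonlinear fit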
TEAD1, sequence (P28347 whole entry, species assumed): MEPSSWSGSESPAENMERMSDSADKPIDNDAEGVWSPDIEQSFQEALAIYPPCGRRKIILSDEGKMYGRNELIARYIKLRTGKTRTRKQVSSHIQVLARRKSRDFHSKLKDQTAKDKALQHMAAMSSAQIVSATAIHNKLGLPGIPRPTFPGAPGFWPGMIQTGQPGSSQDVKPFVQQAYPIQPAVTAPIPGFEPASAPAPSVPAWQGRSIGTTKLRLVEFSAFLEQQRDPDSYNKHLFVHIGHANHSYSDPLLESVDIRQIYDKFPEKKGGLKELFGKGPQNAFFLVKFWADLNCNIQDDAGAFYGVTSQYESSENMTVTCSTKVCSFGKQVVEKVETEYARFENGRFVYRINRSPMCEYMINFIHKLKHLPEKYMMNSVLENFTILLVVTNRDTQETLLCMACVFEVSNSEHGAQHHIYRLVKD
Method: as §1

[3] = biological target: TEAD2 (Homo sapiens (Human), UniProt Q15562);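 further: TR-FRET competition assay with His-tagged TEAD protein and a biotinylated lipid pocket probe, compound pre-incubated 30 min or 4 h at room temperature, displacement lowers signal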
TEAD2, sequence (Q15562 whole entry, species assumed): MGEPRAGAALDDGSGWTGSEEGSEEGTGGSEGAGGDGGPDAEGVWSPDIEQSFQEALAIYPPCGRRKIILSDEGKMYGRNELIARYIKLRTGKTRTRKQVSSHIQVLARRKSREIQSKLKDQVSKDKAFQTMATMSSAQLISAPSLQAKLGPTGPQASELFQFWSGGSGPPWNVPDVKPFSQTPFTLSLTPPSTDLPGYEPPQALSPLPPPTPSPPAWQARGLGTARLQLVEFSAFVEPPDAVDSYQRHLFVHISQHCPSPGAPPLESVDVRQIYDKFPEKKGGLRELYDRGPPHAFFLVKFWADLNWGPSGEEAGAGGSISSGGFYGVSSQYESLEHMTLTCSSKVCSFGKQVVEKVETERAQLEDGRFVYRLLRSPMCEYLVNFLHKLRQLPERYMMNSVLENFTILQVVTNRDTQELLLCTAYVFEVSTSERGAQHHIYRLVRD

[4] = biological target: TEAD4 (Homo sapiens (Human), UniProt Q15561); assay: TR-FRET lipid pocket probe competition assay (Lipid HTRF), TEAD4; assay type: binding; details: 4 hours pre-incubation; read-out: Lipid HTRF TEAD4 IC50;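 further: His-tagged TEAD4 with biotinylated lipid-pocket probe, read by Europium anti-His and XL665 streptavidin, where probe displacement lowers the TR-FRET signal, IC50 from a four-parameter fit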
TEAD4, sequence (Q15561 whole entry, species assumed): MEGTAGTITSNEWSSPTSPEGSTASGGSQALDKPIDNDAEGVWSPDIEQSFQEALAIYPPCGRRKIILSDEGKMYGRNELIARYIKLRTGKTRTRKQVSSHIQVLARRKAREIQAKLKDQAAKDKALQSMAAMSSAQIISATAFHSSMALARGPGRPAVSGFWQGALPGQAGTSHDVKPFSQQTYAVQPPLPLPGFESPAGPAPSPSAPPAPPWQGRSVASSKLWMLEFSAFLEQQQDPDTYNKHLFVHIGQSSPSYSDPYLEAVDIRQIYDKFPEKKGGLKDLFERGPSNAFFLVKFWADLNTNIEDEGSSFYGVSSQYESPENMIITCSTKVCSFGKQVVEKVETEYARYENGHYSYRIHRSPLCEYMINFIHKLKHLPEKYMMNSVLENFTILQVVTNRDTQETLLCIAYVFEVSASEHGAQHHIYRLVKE

TEAD3, sequence (Q99594 whole entry, species assumed): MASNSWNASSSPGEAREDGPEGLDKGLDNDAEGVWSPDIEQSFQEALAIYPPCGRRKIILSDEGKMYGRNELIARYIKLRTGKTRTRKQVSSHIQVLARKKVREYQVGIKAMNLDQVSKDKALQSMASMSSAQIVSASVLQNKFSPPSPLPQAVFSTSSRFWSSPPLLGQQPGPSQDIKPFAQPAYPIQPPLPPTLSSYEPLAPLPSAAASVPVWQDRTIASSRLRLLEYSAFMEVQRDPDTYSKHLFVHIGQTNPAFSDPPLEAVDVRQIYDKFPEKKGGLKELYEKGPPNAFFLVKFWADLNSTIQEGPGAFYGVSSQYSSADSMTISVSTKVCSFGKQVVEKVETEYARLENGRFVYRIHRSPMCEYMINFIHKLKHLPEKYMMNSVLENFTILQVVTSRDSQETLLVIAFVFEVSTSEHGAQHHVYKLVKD

IC50 [1]	IC50 [2]	IC50 [3]	IC50 [4]	Structure (SMILES)
0.56 µM	0.1 µM	0.18 µM	0.049 µM	C=CC(=O)NCc1nn(-c2ccc(S(F)(F)(F)(F)F)cc2)c2cccc([C@@H](O)CO)c12 (single isomer, unassigned) [Compound 10, N-((4-(1,2-dihydroxyethyl)-1-(4-(pentafluoro-λ^6-sulfanyl)phenyl)-1H-indazol-3-yl)methyl)acrylamide]
1.3 µM	0.023 µM	0.086 µM	0.017 µM	C=CC(=O)NCc1nn(-c2ccc(S(F)(F)(F)(F)F)cc2)c2cccc([C@H](O)CO)c12 (single isomer, unassigned) [Compound 11, N-((4-(1,2-dihydroxyethyl)-1-(4-(pentafluoro-λ^6-sulfanyl)phenyl)-1H-indazol-3-yl)methyl)acrylamide]
17 µM	0.025 µM	0.11 µM	0.011 µM	C=CC(=O)NCc1nn(-c2ccc(OC(F)(F)F)cc2)c2nccc(N3CCC[C@H](O)C3)c12 (stereo in doubt) [Compound 33, N-((4-(3-hydroxypiperidin-1-yl)-1-(4-(trifluoromethoxy)phenyl)-1H-pyrazolo[3,4-b]pyridin-3-yl)methyl)acrylamide]
27 µM	0.15 µM	0.099 µM	0.031 µM	C=CC(=O)NCc1nn(-c2ccc(OC(F)(F)F)cc2)c2nccc(N3CCC[C@@H](O)C3)c12 (stereo in doubt) [Compound 65, N-((4-(3-hydroxypiperidin-1-yl)-1-(4-(trifluoromethoxy)phenyl)-1H-pyrazolo[3,4-b]pyridin-3-yl)methyl)acrylamide]
0.21 µM	0.007 µM	0.25 µM	0.0079 µM	C=CC(=O)NCc1nn(-c2ccc(S(F)(F)(F)(F)F)cc2)c2ccccc12 [Compound 3, N-((1-(4-(pentafluoro-λ^6-sulfanyl)phenyl)-1H-indazol-3-yl)methyl)acrylamide]
0.27 µM	0.023 µM	0.14 µM	0.059 µM	C=CC(=O)NCc1nn(-c2ccc(OC(F)(F)F)cc2)c2cccc(CO)c12 [Compound 4, N-((4-(hydroxymethyl)-1-(4-(trifluoromethoxy)phenyl)-1H-indazol-3-yl)methyl)acrylamide]
0.27 µM	0.017 µM	0.31 µM	0.037 µM	C=CC(=O)NCc1nn(-c2ccc(S(F)(F)(F)(F)F)cc2)c2cccc(CO)c12 [Compound 5, N-((4-(hydroxymethyl)-1-(4-(pentafluoro-λ^6-sulfanyl)phenyl)-1H-indazol-3-yl)methyl)acrylamide]
0.63 µM	0.048 µM	2.8 µM	0.043 µM	C=CC(=O)NCc1nn(-c2ccc(S(F)(F)(F)(F)F)cc2)c2cccnc12 [Compound 12, N-((1-(4-(pentafluoro-λ^6-sulfanyl)phenyl)-1H-pyrazolo[4,3-b]pyridin-3-yl)methyl)acrylamide]
0.23 µM	0.01 µM	0.33 µM	0.0086 µM	C=CC(=O)NCc1nn(-c2ccc(S(F)(F)(F)(F)F)cc2)c2ncccc12 [Compound 13, N-((1-(4-(pentafluoro-λ^6-sulfanyl)phenyl)-1H-pyrazolo[3,4-b]pyridin-3-yl)methyl)acrylamide]
0.3 µM	0.033 µM	0.25 µM		C=C(C)C(=O)N1CC(c2nn(-c3ccc(OC(F)(F)F)cc3)c3nccc(CO)c23)C1 [Compound 22, 1-(3-(4-(Hydroxymethyl)-1-(4-(trifluoromethoxy)phenyl)-1H-pyrazolo[3,4-b]pyridin-3-yl)azetidin-1-yl)-2-methylprop-2-en-1-one]
3.7 µM			0.0099 µM	C=CC(=O)NCc1nn(-c2ccc(OC(F)(F)F)cc2)c2nccc(N(C)[C@H]3C[C@H](O)C3)c12 [Compound 90, N-((4-((3-hydroxycyclobutyl)(methyl)amino)-1-(4-(trifluoromethoxy)phenyl)-1H-pyrazolo[3,4-b]pyridin-3-yl)methyl)acrylamide]
	0.015 µM	0.029 µM		O=C(/C=C/CO)N1CC(c2nn(-c3ccc(OC(F)(F)F)cc3)c3nccc(CO)c23)C1 [Compound 94, (E)-4-Hydroxy-1-(3-(4-(hydroxymethyl)-1-(4-(trifluoromethoxy)phenyl)-1H-pyrazolo[3,4-b]pyridin-3-yl)azetidin-1-yl)but-2-en-1-one]
0.46 µM	0.032 µM	0.075 µM		CC#CC(=O)NCc1nn(-c2ccc(OC(F)(F)F)cc2)c2nccc(CO)c12 [Compound 98, N-((4-(Hydroxymethyl)-1-(4-(trifluoromethoxy)phenyl)-1H-pyrazolo[3,4-b]pyridin-3-yl)methyl)but-2-ynamide]
16 µM			0.033 µM	C=CC(=O)NCc1nn(-c2ccc(OC(F)(F)F)cc2)c2nccc(N(C)[C@H]3C[C@@H](O)C3)c12 [Compound 117, N-((4-((3-hydroxycyclobutyl)(methyl)amino)-1-(4-(trifluoromethoxy)phenyl)-1H-pyrazolo[3,4-b]pyridin-3-yl)methyl)acrylamide]
0.35 µM	0.021 µM	0.068 µM		O=C(/C=C/CF)NCc1nn(-c2ccc(OC(F)(F)F)cc2)c2nccc(CO)c12 [Compound 121, (E)-4-Fluoro-N-((4-(hydroxymethyl)-1-(4-(trifluoromethoxy)phenyl)-1H-pyrazolo[3,4-b]pyridin-3-yl)methyl)but-2-enamide]
50 µM	0.58 µM	0.29 µM		O=C(N1CC(c2nn(-c3ccc(OC(F)(F)F)cc3)c3nccc(CO)c23)C1)C12CC1C2 (centres unmarked) [Compound 153, Bicyclo[1.1.0]butan-1-yl(3-(4-(hydroxymethyl)-1-(4-(trifluoromethoxy)phenyl)-1H-pyrazolo[3,4-b]pyridin-3-yl)azetidin-1-yl)methanone]

Structure (SMILES)	IC50 [1]	IC50 [2]	IC50 [3]	IC50 [4]
C=CC(=O)NCc1nn(-c2ccc(OC(F)(F)F)cc2)c2nccc([C@@H](O)CO)c12 (stereo in doubt) [Compound 16, N-((4-(1,2-dihydroxyethyl)-1-(4-(trifluoromethoxy)phenyl)-1H-pyrazolo[3,4-b]pyridin-3-yl)methyl)acrylamide]	0.68 µM	0.23 µM	0.12 µM	0.061 µM
C=CC(=O)NCc1nn(-c2ccc(OC(F)(F)F)cc2)c2nccc([C@H](O)COC(=O)CN)c12 [Compound 145, (S)-2-(3-(Acrylamidomethyl)-1-(4-(trifluoromethoxy)phenyl)-1H-pyrazolo[3,4-b]pyridin-4-yl)-2-hydroxyethyl 2-aminoacetate formate]		0.14 µM	0.071 µM	0.049 µM
C=CC(=O)NCc1nn(-c2ccc(OC(F)(F)F)cc2)c2nccc([C@H](O)COC(C)=O)c12 [Compound 146, (S)-2-(3-(Acrylamidomethyl)-1-(4-(trifluoromethoxy)phenyl)-1H-pyrazolo[3,4-b]pyridin-4-yl)-2-hydroxyethyl acetate]		0.04 µM	0.066 µM	0.028 µM
C=CC(=O)NCc1nn(-c2ccc(OC(F)(F)F)cc2)c2nccc([C@H](O)COP(=O)(O)O)c12 [Compound 147, (S)-2-(3-(Acrylamidomethyl)-1-(4-(trifluoromethoxy)phenyl)-1H-pyrazolo[3,4-b]pyridin-4-yl)-2-hydroxyethyl dihydrogen phosphate]				36 µM
